Here are results for 4 molecules from paper PMC7864192 (Cancers, 2021).

Series [1] has as its system GCPA007 T2.I patient-derived AGCT cell line. The series can be described thus: Cell viability drug screen (Cell Titer Glo 2.0, 72 h), mono- and combination therapy, GCPA007T2.I. The conditions noted are these: for IC50: read-out: IC50 in monotherapy. (In general: ATP-based viability assays read luminescence as a measure of living cells.)
The subject of series [2] is GCPA096 T1.I patient-derived AGCT cell line. Description: Cell viability drug screen (Cell Titer Glo 2.0, 72 h), mono- and combination therapy, GCPA096T1.I. The conditions noted are these: for IC50: read-out: IC50 in monotherapy.
Protocol: (§1) Cell lines were seeded at a density of 500 cells/well in 40 uL in 384-well plates (Corning, NY, USA) with the Multidrop™ cell dispenser (Thermo Fischer Scientific, Waltham, MA, USA) and sealed with Breathe-Easy® membrane (Sigma-Aldrich, St. Louis, MO, USA) to prevent evaporation. […] For each cell line, three biological repeats and two technical repeats each were performed in order to ensure the validity of the drug screens. […] Subsequently, 11 drugs and 12 drug combinations were dispensed and all wells (excluding blanks and non-DMSO control wells) were normalized to 1% DMSO using the HP Tecan D300e Digital Dispenser (Hewlett-Packard, Palo Alto, CA, USA). […] Next, the plates were covered with the Breathe-Easy membrane and incubated. After 72 h, the Multidrop dispensed 15 uL per well of Cell Titer Glo 2.0 (Thermo Fischer Scientific, Waltham, MA, USA) and plates were incubated in the dark for 10 min. After incubation, luminescence excitation was assessed in the Spectramax reader (Molecular Devices, San Jose, CA, USA) (top read, luminescence excitation at 500 nm) and raw data were processed in Microsoft Excel to subtract background luminescence. The Z-factor, a mathematical method used to quantify the quality of a drug screen based on the calculation of the separation band between the values of the positive and negative controls, was utilized to assess the quality of drug screens [54]. Screens with a Z-factor value of >0.5 were used for further analysis.
(§2) Overall cell survival (in %) was plotted against the drug concentration range of each drug (in log10[μM]) using GraphPad Prism 8.3.1. Values that exceeded 100% survival (within +20% biological deviation) were normalized to 100% survival. Similarly, values below 0% cell survival (within −20% biological deviation) were normalized to 0% survival. Values exceeding this deviation were excluded. Dose–response curves were obtained using the model “log(inhibitor) vs. variable slope (normalized response)” to fit the dose–response curves and R^2 values were used to indicate how well the model fit the data (Supplementary Materials Figures S4 and S5). […] The IC50 values were calculated based on the Chou–Talalay method using Compusyn software [55]. For anti-hormonal treatment, mostly provided as maintenance therapy, we used IC10 values in addition to the IC50.
(§3) In addition to the 11 monotherapies, 12 drug combinations were tested (Table 3) simultaneously with the individual drug treatments in the same 384-well plate. […] Synergy was evaluated using the mass action law, a systematic analysis assessing dose–response dynamics in a cost-effective manner [56, 57]. The combination index (CI) was used to indicate antagonistic (CI > 1) additive (CI = 1) and synergistic (CI < 1) effects [55].
The test system of series [3] is GCPA096 T1.II patient-derived AGCT cell line. Description: Cell viability drug screen (Cell Titer Glo 2.0, 72 h), mono- and combination therapy, GCPA096T1.II. To be noted: for IC50: 72 h, read-out: IC50 in monotherapy.
Protocol: (§4) Cell lines were seeded at a density of 500 cells/well in 40 uL in 384-well plates (Corning, NY, USA) with the Multidrop™ cell dispenser (Thermo Fischer Scientific, Waltham, MA, USA) and sealed with Breathe-Easy® membrane (Sigma-Aldrich, St. Louis, MO, USA) to prevent evaporation. The SVOG-3e line was seeded at 1000 cells/well due to contact-dependent growth requirements. For each cell line, three biological repeats and two technical repeats each were performed in order to ensure the validity of the drug screens. […] Subsequently, 11 drugs and 12 drug combinations were dispensed and all wells (excluding blanks and non-DMSO control wells) were normalized to 1% DMSO using the HP Tecan D300e Digital Dispenser (Hewlett-Packard, Palo Alto, CA, USA). All drugs were applied in linear concentration ranges (Table 2), including 16 data points to enable combination drug testing at constant ratios (Table 3). Next, the plates were covered with the Breathe-Easy membrane and incubated. After 72 h, the Multidrop dispensed 15 uL per well of Cell Titer Glo 2.0 (Thermo Fischer Scientific, Waltham, MA, USA) and plates were incubated in the dark for 10 min. After incubation, luminescence excitation was assessed in the Spectramax reader (Molecular Devices, San Jose, CA, USA) (top read, luminescence excitation at 500 nm) and raw data were processed in Microsoft Excel to subtract background luminescence. […] Screens with a Z-factor value of >0.5 were used for further analysis.
(§5) Overall cell survival (in %) was plotted against the drug concentration range of each drug (in log10[μM]) using GraphPad Prism 8.3.1. Values that exceeded 100% survival (within +20% biological deviation) were normalized to 100% survival. Similarly, values below 0% cell survival (within −20% biological deviation) were normalized to 0% survival. Values exceeding this deviation were excluded. Dose–response curves were obtained using the model “log(inhibitor) vs. variable slope (normalized response)” to fit the dose–response curves and R^2 values were used to indicate how well the model fit the data (Supplementary Materials Figures S4 and S5). […] The maximum plasma concentration (Cmax) and the plasma concentration at steady state (Css) were used as toxicity thresholds. The Cmax was utilized for drugs in which short, high-dosage time courses are required, while the Css was used for maintenance therapy regimes such as anti-hormonal treatment. […] The IC50 values were calculated based on the Chou–Talalay method using Compusyn software [55]. For anti-hormonal treatment, mostly provided as maintenance therapy, we used IC10 values in addition to the IC50.
as §3
Series [4] relates to KGN cells (AGCT cell line). Description: Cell viability drug screen (Cell Titer Glo 2.0, 72 h), mono- and combination therapy, KGN.
The subject of series [5] is GCPA096 T1.V patient-derived AGCT cell line. Description: Cell viability drug screen (Cell Titer Glo 2.0, 72 h), mono- and combination therapy, GCPA096T1.V. The conditions noted are these: for IC50: 72 h, read-out: IC50 in monotherapy.
Protocol: as §4, §5, §3
Series [6] deals with GCPA096 T1.XVI patient-derived AGCT cell line. The series can be described thus: Cell viability drug screen (Cell Titer Glo 2.0, 72 h), mono- and combination therapy, GCPA096T1.XVI. The conditions noted are these: for IC50: read-out: IC50 in monotherapy.
Protocol: as §4, §5, §3
Series [7] deals with GCPA096 T1.XV patient-derived AGCT cell line. The series can be described thus: Cell viability drug screen (Cell Titer Glo 2.0, 72 h), mono- and combination therapy, GCPA096T1.XV. The conditions noted are these: for IC50: 72 h, read-out: IC50 in monotherapy.
Protocol: (§6) Cell lines were seeded at a density of 500 cells/well in 40 uL in 384-well plates (Corning, NY, USA) with the Multidrop™ cell dispenser (Thermo Fischer Scientific, Waltham, MA, USA) and sealed with Breathe-Easy® membrane (Sigma-Aldrich, St. Louis, MO, USA) to prevent evaporation. The SVOG-3e line was seeded at 1000 cells/well due to contact-dependent growth requirements. For each cell line, three biological repeats and two technical repeats each were performed in order to ensure the validity of the drug screens. […] Subsequently, 11 drugs and 12 drug combinations were dispensed and all wells (excluding blanks and non-DMSO control wells) were normalized to 1% DMSO using the HP Tecan D300e Digital Dispenser (Hewlett-Packard, Palo Alto, CA, USA). All drugs were applied in linear concentration ranges (Table 2), including 16 data points to enable combination drug testing at constant ratios (Table 3). Next, the plates were covered with the Breathe-Easy membrane and incubated. After 72 h, the Multidrop dispensed 15 uL per well of Cell Titer Glo 2.0 (Thermo Fischer Scientific, Waltham, MA, USA) and plates were incubated in the dark for 10 min. After incubation, luminescence excitation was assessed in the Spectramax reader (Molecular Devices, San Jose, CA, USA) (top read, luminescence excitation at 500 nm) and raw data were processed in Microsoft Excel to subtract background luminescence. The Z-factor, a mathematical method used to quantify the quality of a drug screen based on the calculation of the separation band between the values of the positive and negative controls, was utilized to assess the quality of drug screens [54]. Screens with a Z-factor value of >0.5 were used for further analysis.
as §5, §3
The test system of a further series is AGCT cell lines. The series can be described thus: Cell viability drug screen (72 h), summary over AGCT cell lines (12 patient-derived, with or without KGN). The format is cell-based, human.
Series [8] concerns GCPA007 T2.IV patient-derived AGCT cell line. The series can be described thus: Cell viability drug screen (Cell Titer Glo 2.0, 72 h), mono- and combination therapy, GCPA007T2.IV. The conditions noted are these: for IC50: read-out: IC50 in monotherapy.
Series [9] deals with GCPA113 T1.I patient-derived AGCT cell line. The series can be described thus: Cell viability drug screen (Cell Titer Glo 2.0, 72 h), mono- and combination therapy, GCPA113T1.I. The conditions noted are these: for IC50: read-out: IC50 in monotherapy.
Protocol: as §1, §2, §3
Series [10] has as its system GCPA113 T1.III patient-derived AGCT cell line. Description: Cell viability drug screen (Cell Titer Glo 2.0, 72 h), mono- and combination therapy, GCPA113T1.III. The conditions noted are these: for IC50: read-out: IC50 in monotherapy.
Protocol: as §1, §2, §3
Series [11] relates to GCPA108 T3.IV patient-derived AGCT cell line. The series can be described thus: Cell viability drug screen (Cell Titer Glo 2.0, 72 h), mono- and combination therapy, GCPA108T3.IV. To be noted: for IC50: read-out: IC50 in monotherapy.
Protocol: as §6, §5, §3
Series [12] concerns GCPA113 T1.II patient-derived AGCT cell line. The series can be described thus: Cell viability drug screen (Cell Titer Glo 2.0, 72 h), mono- and combination therapy, GCPA113T1.II. The conditions noted are these: for IC50: read-out: IC50 in monotherapy.
Protocol: as §1, §2, §3
In series [13] the test system is GCPA028 T1.II patient-derived AGCT cell line. The series can be described thus: Cell viability drug screen (Cell Titer Glo 2.0, 72 h), mono- and combination therapy, GCPA028. The conditions noted are these: for IC50: read-out: IC50 in monotherapy.
Protocol: as §4, §5, §3
For series [14] the following is noted: cited from earlier work; for Cmax: read-out: Cmax/Css plasma.
Setting [15] is: Homo sapiens, 72 h, read-out: IC50 in monotherapy.
Where [16] appears, read: human plasma maximum/steady state concentration, ref phase I/II clinical trials.

Read-outs that look alike come from different tables or passages of the source.

Protocol for AGCT cell lines: as §6, §5, §3

`CC(=O)O[C@H]1C(=O)[C@@]2(C)[C@H]([C@H](OC(=O)c3ccccc3)[C@]3(O)C[C@H](OC(=O)[C@H](O)[C@@H](NC(=O)c4ccccc4)c4ccccc4)C(C)=C1C3(C)C)[C@]1(OC(C)=O)CO[C@@H]1C[C@@H]2O` [Paclitaxel]: the concentration for half-maximal inhibition (IC50) is over 50 µM in [1] (Homo sapiens, 72 h); over 50 µM in series [2] (Homo sapiens, 72 h); over 50 µM in [2] (Homo sapiens); over 50 µM in series [3] (Homo sapiens); over 50 µM in [4] (setting [15]); over 50 µM in [4] (Homo sapiens, read-out: IC50 in monotherapy). In addition, the IC50 in series [5] (Homo sapiens) was over 50 µM; in series [6] (Homo sapiens, 72 h) it was over 50 µM; in series [6] (Homo sapiens), over 50 µM; in series [7] (Homo sapiens), over 50 µM; with AGCT cell lines (Homo sapiens, median over AGCT cell lines, read-out: median IC50 in monotherapy) it was 93.3 µM; in series [8] (Homo sapiens, 72 h), over 50 µM. For the same molecule, the IC50 is over 50 µM in series [8] (Homo sapiens); over 50 µM in series [9] (Homo sapiens, 72 h); over 50 µM in series [9] (Homo sapiens); over 50 µM in series [10] (Homo sapiens, 72 h); over 50 µM in series [10] (Homo sapiens); over 50 µM in series [11] (Homo sapiens, 72 h). The IC50 in series [11] (Homo sapiens) is over 50 µM; in series [12] (Homo sapiens, 72 h) it was 48.3 µM; in series [12] (Homo sapiens), 48.3 µM.
Turning to `Nc1nc2c(ncn2[C@H]2C[C@H](O)[C@@H](CO)O2)c(=S)[nH]1` [6thio-2dG, 6-THIO-2dG], the “DRI (Fa=0,5)” value in series [1] (in Carbo+Pacli+6thio2dG (10:1:1), GCPA007T2I) is reported as 2.27; in series [2] (GCPA096T1I, in combination Carbo+Pacli+6thio2dG), 10.9; in series [3] (GCPA096T1II, drug within Carbo+Pacli+6thio2dG), 12.35; in series [4] (drug within Carbo+Pacli+6thio2dG), 4.961; in series [5] (GCPA096T1V, drug within Carbo+Pacli+6thio2dG), 9.08; in series [6] (GCPA096T1XVI, in Carbo+Pacli+6thio2dG), 1.78. The “DRI (Fa=0,5)” value in [13] (GCPA028, in combination Carbo+Pacli+6thio2dG) is listed as 0.16; in series [7] (GCPA096T1XV, drug within Carbo+Pacli+6thio2dG), 13.49; in series [8] (GCPA007T2IV, in combination Carbo+Pacli+6thio2dG) it was 0.95; in series [9] (GCPA113T1I, in Carbo+Pacli+6thio2dG) it was 3.54; in series [10] (GCPA113T1III, drug within Carbo+Pacli+6thio2dG) it was 4.5; in [11] (GCPA108T3IV, in Carbo+Pacli+6thio2dG), 6.093. In addition, in series [12] (GCPA113T1II, drug within Carbo+Pacli+6thio2dG), the “DRI (Fa=0,5)” value is listed as 3.71. Besides, the IC50 was over 50 µM in series [1] (GCPA007T2I, cell viability 72 h after drug application); over 50 µM in series [2] (GCPA096T1I, monotherapy); over 50 µM in series [3] (GCPA096T1II, single drug, unit not given (compared with Cmax/Css in uM)); over 50 µM in [4] (read-out: IC50 in monotherapy, monotherapy); over 50 µM in [5] (GCPA096T1V, single drug, unit not given (compared with Cmax/Css in uM)); 43.8 µM in series [6] (GCPA096T1XVI, monotherapy). Also, the IC50 in series [13] (GCPA028, monotherapy) was over 50 µM; in series [7] (GCPA096T1XV, single drug, unit not given (compared with Cmax/Css in uM)), over 50 µM; in series [8] (GCPA007T2IV, monotherapy), over 50 µM; in series [9] (GCPA113T1I, monotherapy), over 50 µM; in series [10] (GCPA113T1III, monotherapy), over 50 µM; in [11] (GCPA108T3IV, monotherapy), over 50 µM. The half-inhibitory concentration (IC50) in [12] (GCPA113T1II, monotherapy) is over 50 µM.
Turning to `Cc1nc(Nc2ncc(C(=O)Nc3c(C)cccc3Cl)s2)cc(N2CCN(CCO)CC2)n1` [Dasatinib], the IC50 in [1] (Homo sapiens, 72 h) is over 20 µM; in series [2] (Homo sapiens, 72 h), 14.2 µM; in series [3] (Homo sapiens) it was over 20 µM; in series [4] (setting [15]), 4.77 µM; in [5] (Homo sapiens), over 20 µM; in series [6] (Homo sapiens, 72 h) it was over 20 µM. Moreover, the IC50 in series [13] (Homo sapiens, 72 h) is over 20 µM; in [7] (Homo sapiens), over 20 µM; in series [8] (Homo sapiens, 72 h), over 20 µM; in series [9] (Homo sapiens, 72 h) it was over 20 µM; in series [10] (Homo sapiens, 72 h) it was 18.1 µM; in [11] (Homo sapiens, 72 h), 4.65 µM. Further, the IC50 in [12] (Homo sapiens, 72 h) was over 20 µM. Also, the “Cmax/Css plasma (Log 10)” value is given as -0.9208 Log 10 in series [14] (human maximum or steady state plasma concentration, log10 of the uM value); -0.9208 Log 10 in series [14] (human plasma Cmax/Css, log10 of uM value, from phase I/II clinical trials); -0.9208 Log 10 in series [14] (setting [16]); -0.9208 in series [14] (human plasma, maximum or steady state concentration, log10 of uM value); -0.9208 in series [14] (human plasma, log10 of uM, phase I/II trials). The Cmax was 120 nM in series [14] (human maximum or steady state plasma concentration); 120 nM in [14] (human plasma Cmax/Css, from phase I/II clinical trials); 120 nM in [14] (setting [16]); 120 nM in series [14] (human plasma, maximum or steady state concentration); 120 nM in series [14] (human plasma, phase I/II trials).
In the case of `CC/C(=C(\c1ccccc1)c1ccc(OCCN(C)C)cc1)c1ccccc1` [Tamoxifen], in the series on AGCT cell lines (range over AGCT cell lines, monotherapy), the “range IC10 (concentration needed to obtain 10% cell death)” value was 6.04 to 15.03 µM.

The term IC50 denotes the point on the concentration scale where inhibition reaches its midpoint.
